What was measured:
[1] = tested on: db/db mice; assay: In vivo hypoglycemic effect in db/db mice (OGTT, fructosamine, insulin, HOMA-IR); design: species or system mouse
Protocol: Six-week old male C57/BL6 mice (n = 6) were acquired from the Animal Center of the College of Medicine, National Taiwan University (Taipei, Taiwan) and 6-week-old male db/db mice (BKS.Cg-Dock7m +/+ Leprdb/JNarl) (n = 12) were acquired from the National Laboratory Animal Center (Tainan, Taiwan). Experimental animals were allowed to acclimate to the controlled photoperiod (a cycle of 12-h light/12-h dark), humidity (40–60% relative humidity) and temperature (22 ± 2 °C) with ad libitum supply of standard chow diets and drinking water for one week prior to the experimental treatment in accordance with the Guide for the Care and Use of Laboratory Animals (Institute of Laboratory Animal Resources Commission on Life Sciences, 2011). Acclimated animals were randomly separated into three cohorts: control group (C57/BL6 mice treated with vehicle for two weeks, n = 6), db/db group (db/db mice treated with vehicle for two weeks, n = 6), and db/db+SP group (db/db mice treated with 100 mg/kg scoparone for two weeks, n = 6). (IACUC Approval NO.: 20140532; Duration: 2015.01.01–2015.12.31; Ethical Committee: National Taiwan University College of Medicine and College of Public Health Institutional Animal Care and Use Committee (IACUC).)
The control mice or diabetic mice with or without drugs treatment for 2 weeks received an oral glucose challenge (2 g/kg). Mice were under slight anesthesia by an intraperitoneal injection of pentobarbital (50 mg/kg) and blood samples (20–50 μL via orbital sinus at each time point) were collected following: 0, 15, 30, 60, 90, and 120 min after delivery of the glucose load. Blood glucose levels were determined using SURESTEP blood glucose meter (Lifescan). Glucose tolerance was determined and performed as the curve (AUC) and delta AUC (ΔAUC) using Prism 5 software (GraphPad).
To determine the amount of insulin and fructosamine after fasting overnight, blood samples (0.5–0.8 mL) of euthanasia animals were collected. After centrifugation, the serum was analyzed by insulin and fructosamine immunoassay kits according to the respective instructions of the manufacturer (Mercodia AB Inc., Uppsala, Sweden; Hospitex Diagnostics Lp, League City, TX, USA). The homeostasis model assessment of insulin resistance (HOMA-IR) index is calculated with the formula of the values of fasting glucose and insulin divided by 22.5 as previously described.

[2] = Preliminary pharmacokinetic study, plasma concentration by RP-HPLC-fluorescence; format: in vivo, C57BL/6 mice; conditions: for desired plasma concentration (10 μM) reached: dose 0.5 mg/mouse, desired ~2 μg/mL for scoparone, ~3 μg/mL for 50
Text: S23 Preliminary pharmacokinetic studies of scoparone and 6,7-diprenoxycoumarin
Table S1 Blood concentration of scoparone. mouse Dose given (mg) Body weight (g) Time (min) Cal. Conc. (µg/ml) […]
Table S2 Blood concentration of 6,7-diprenoxycoumarin.
Adopt previous study on fraxetin (unpublished result) , a coumarin compound, RP -HPLC -fluorescence method (excitation 380 nm and emission 480 nm ) was applied on analysis of the concentration of scoparone and 6,7 -diprenoxycoumarin. […]
without interference with endogenous plasma constituents. […]
retention time of approximately 7.51 in mouse plasma.
0.01 to 10.00 µg/ml for scoparone and 0.025 to 6.25 µg/ml for 6,7 -diprenoxycoumarin. The relativ e error and coefficient of variance are all below 15 %. The LOQ were 0.01 and 0.005 µg/ml for scoparone and 6,7 - diprenoxycoumarin. Linearity over the investigated concentration was obtained.
After method validation, C57BL/6 mice were given scoparone (i.p.) or 6,7 -diprenoxycoumarin and plasma […]
In pharmacological assay, the desired scoparone […]
the amount of drug increased to 0.5 mg/mice. Thus, the CAR activating effect may not be seen in vivo, which can account for no blood sugar lowering effects of 6,7-diprenoxycoumarin in vivo.
Acetonitrile HPLC-grade (LiChrosolv® ) were purchased from Sigma-Aldrich Chemie GmbH. Deionized water was purified on a Milli-Q system. Scoparone and 6,7-diprenoxycoumarin were synthesized from our […]
lab and purity was > 95 % from HPLC-UV method.
Instrumentation and Chromatographic Condition
Hitachi L-7100 liquid chromatography system (Hitachi, Japan) comprised a Hitachi D-7000 interface, a Hitachi L-7200 auto sampler, a Hitachi L-7400 UV detector and a Hitachi L-2480 FL detector. The HPLC colum consisted of a Thermo Hypurity® RP-18 column (200 × 4.6 mm, 5 µm) connected to a Hichrom ODS guard column. The isocratic elution was applied for scoparone (ACN-H2O = 3:7) and 6,7-diprenoxycoumarin (ACN-H2O = 7:3). The flow rate was set at 1.0 ml/min. The detection fluorescence was set at excitation 380 nm and emission 480 nm. A volume of 20 µL of sample was subjected to HPLC for […]
Animals and Sample Preparation
Eight-week old male or female C57/BL6 mice were acquired from BioLASCO Taiwan Co., Ltd. Experimental animals were allowed to acclimate to the controlled photoperiod (a cycle of 12-hr light/ 12-hr dark), humidity (40-60% relative humidity) and temperature (22 ± 2 °C) with ad libitum supply of standard chow diets and drinking water for one week prior to the experimental treatment in accordance with the Guide for the Care and Use of Laboratory Animals (Institute of Laboratory Animal Resources Commission on Life Sciences, 2011). Acclimated animals were randomly separated into two groups: scoparone-treated or 6,7-diprenoxycoumarin-treated. Mice were administered indicated dose i.p. All mice were anesthetized with Zoetil (10 mg/ml, 0.05 ml/10 gmbw, i.p.) before blood sampling. The blood samples (approximately 300 µL) were […]
centrifuging at 10,000 rpm for 10 min, the plasma samples were obtained. The plasma (50 µL) was mixed with 150 µL ACN, vortexed, and centrifuged for […], 10 mins and at 4 °C. The supernatant was obtained and 20 µL of sample was subjected to HPLC analysis.
Institute of Laboratory Animal Resources Commission on Life Sciences, National Research Council. In Guide for the Care and Use of Laboratory Animals, 8th ed.; National Academy Press: Washington, DC, 2011.

[3] = db/db mice, 100 mg/kg P.O., two weeks

Blood concentration, Cal. Conc. ([2]; Table S2, Study 1 mouse 1, dose given 0.36 mg i.p., 10 min) | Blood concentration, Cal. Conc. ([2]; Table S2, Study 1 mouse 2, dose given 0.36 mg i.p., 60 min) | Blood concentration, Cal. Conc. ([2]; Table S2, Study 1 mouse 3, dose given 0.36 mg i.p., 110 min) | Blood concentration, Cal. Conc. ([2]; Table S2, Study 1 mouse 4, dose given 0.36 mg i.p., 360 min) | Blood concentration, Cal. Conc. ([2]; Table S2, Study 2 mouse 1, dose given 0.5 mg i.p., 11 min) | Blood concentration, Cal. Conc. ([2]; Table S2, Study 2 mouse 2, dose given 0.5 mg i.p., 60 min) | Blood concentration, Cal. Conc. ([2]; Table S2, Study 2 mouse 3, dose given 0.5 mg i.p., 318 min) | desired plasma concentration (10 μM) reached [2] | Blood concentration, Cal. Conc. ([2]; Table S1, Study 1 mouse 1, dose given 0.2 mg i.p., 10 min) | Blood concentration, Cal. Conc. ([2]; Table S1, Study 1 mouse 2, dose given 0.2 mg i.p., 60 min) | Blood concentration, Cal. Conc. ([2]; Table S1, Study 1 mouse 3, dose given 0.2 mg i.p., 315 min) | Blood concentration, Cal. Conc. ([2]; Table S1, Study 2 mouse 3, dose given 0.5 mg i.p., 320 min) | SMILES | in vivo efficacy (blood sugar lowering) ([1]; even by intraperitoneal injection) | HOMA-IR [1, 3] | insulin level [1, 3] | level of fructosamine [1, 3] | oral glucose tolerance test (OGTT) [1, 3]
560 ng/mL | 80 ng/mL | 70 ng/mL | 40 ng/mL | 310 ng/mL | 120 ng/mL | 27 ng/mL | cannot be obtained | – | – | – | – | CC(C)=CCOc1cc2ccc(=O)oc2cc1OCC=C(C)C [Compound 50, 6,7-diprenoxycoumarin] | didn’t show any in vivo efficacy | – | – | – | –
– | – | – | – | – | – | – | can be achieved | 410 ng/mL | 260 ng/mL | 40 ng/mL | 40 ng/mL | COc1cc2ccc(=O)oc2cc1OC [Compound 39, scoparone] | – | did not change | did not change | decreased | significant improvement

Reference: PMC7796031, “Studies of Coumarin Derivatives for Constitutive Androstane Receptor (CAR) Activation” (Molecules, 2020)
